Results reported in patent publication US8921642B2, “Conditional-stop dimerizable caspase transgenic animals” (Massachusetts Eye and Ear Infirmary, priority 2008, dated 2014).

Experiments:
[1] = tested on: cells co-transfected with Cre and dimerizable caspase-3 transgene; assay: LIVE/DEAD analysis of co-transfected cells versus original pSHMFv2Caspase3E; type: cell-based; settings: LIVE/DEAD analysis in the presence of AP20187
Text: To determine the extent of cell ablation, the co-transfected cells were compared with the original pSHMFv2Caspase3E in the presence of AP20187 using LIVE/DEAD analysis (Invitrogen). The number of dying cells and the decrease in cell viability was almost same in the co-transfected group as compared to the original plasmid transfection group (FIGS. 6B-6C).

[2] = tested on: cells cotransfected with pCAN-Cre and pCMVflox (dimerizable caspase); assay: MTT assay of cell viability after dimerizer treatment of transfected cells; type: cell-based; settings: treated 24 hours after transfection, read 48 hours later; only in the group where both Cre-recombinase and transgene were transfected
Experimental: To confirm that the system works, the effect of the dimerizer, AP20187, was examined in vitro on cells that were transfected with either pCAN-Cre or pCMVflox, or cotransfected with both. 24 hours after transfection, cells were treated with the dimerizer AP20187, and 48 hours later cell-viability/dying cells were examined using a standard MTT (3-(4,5-dimethylthiazol-2-yl)-2,5-diphenyltetrazolium bromide) assay.

[3] = biological target: FKBPs with a single amino acid substitution: Phe36Val (Homo sapiens, UniProt P62942, F37V); settings: cited from earlier work
Sequence of FKBPs with a single amino acid substitution: Phe36Val (P62942 2-108 F37V limits assumed): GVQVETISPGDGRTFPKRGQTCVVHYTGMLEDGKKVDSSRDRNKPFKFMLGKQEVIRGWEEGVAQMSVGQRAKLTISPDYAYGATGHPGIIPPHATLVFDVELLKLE

native FKBPs = native FKBPs (Homo sapiens, UniProt P62942); settings: cited from earlier work
Sequence of native FKBPs (P62942 whole entry): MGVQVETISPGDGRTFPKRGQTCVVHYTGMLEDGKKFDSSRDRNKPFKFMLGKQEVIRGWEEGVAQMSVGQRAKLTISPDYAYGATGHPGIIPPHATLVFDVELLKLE

[4] = tested on: inner and outer hair cells; assay: organ of Corti explant culture of double transgenics in medium containing AP20187; type: cell-based, mouse; settings: within 24 hours of incubation
[5] = tested on: beta cells of the pancreas; assay: in vivo beta cell ablation in Ins-Cre double transgenic mice (IPGTT, GTT); parameters: species or system mouse
Experimental: Diabetes is cause by loss of insulin producing beta cells in the pancreas. These cells cannot be replaced by known techniques. A model for impaired glucose tolerance was constructed by crossing the transgenic mouse (line B) described herein with an Ins-Cre mouse (Jackson Labs). […] This model has the characteristics of a pre-diabetic mouse.
The FK506 analogue AP20187 was administered by intraperitoneal (IP) injection. β-cell death was monitored in the animals by intraperitoneal glucose tolerance testing (IPGTT) using standard methodology.
The effect on blood glucose levels was also evaluated using a standard glucose tolerance test (GTT). 30 minutes after a glucose challenge, a blood sample was obtained from the tail vein and a measurement of blood glucose was obtained with a glucose monitor.

auditory hair cells = assay: in vivo hair cell ablation and hearing loss in Brn3c-Cre double transgenic mice; parameters: species or system mouse
Text: Auditory hair cells are the mechanosensory channel that transduce sound waves to action potentials. Since mammalian hair cells cannot spontaneously regenerate once lost, regenerative medicine for hearing loss would be of great importance, and it has been difficult to establish a reproducible model for ablation of hair cells. The transgenic mice described herein (line D) were mated with a hair cell-specific, Brn3c-Cre mouse from Doug Vetter (Xiang et al., Proc. Natl. Acad. Sci. U.S.A. 94(17):9445-50 (1997); Sage et al., Proc. Nat. Acad. Sci. 103(19):7345-7350 (2006)).
In vivo experiments were also performed. Animals at 6-8 weeks of age were administered AP20187 (10 mg/kg ip) and analyzed six days later. […] Approximately 35˜40% of inner hair cells and 15% of outer hair cells were lost, as judged by Pv3 staining.

[6] = tested on: Rosa26-CreER (Cre recombinase); assay: tamoxifen-induced Cre recombination in cells from Rosa26-CreER double transgenic mice; type: cell-based, mouse; settings: cells from line F x Rosa26-CreER double transgenic mice, in the presence of tamoxifen
Text: To provide a model for ready confirmation of the function of the conditional-stop dimerizable caspase transgene, the transgenic mice described herein (line F) were crossed with Rosa26-CreER mice. In vitro experiments on cells from the mice were contacted with tamoxifen to induce expression of the Cre recombinase, and the results, shown in FIG. 13, indicate successful recombination and expression of the transgene.

[7] = 10 mg/kg ip, six days later, treated animals
[8] = immunohistochemistry after AP20187 administration

Row | Structure (SMILES) | number of dying cells and decrease in cell viability, co-transfected group compared to original plasmid transfection group [1] | cell viability by MTT assay [2] | binding to FKBPs with Phe36Val substitution [3] | binding to the native FKBPs (native FKBPs) | inner hair cell loss [4] | outer hair cell loss [4] | blood glucose levels in glucose tolerance test (GTT) ([5]; 30 minutes after a glucose challenge, tail vein blood) | glucose control by intraperitoneal glucose tolerance testing (IPGTT) ([5]; IP injection, Ins-Cre double transgenic animals, more pronounced in females than in males) | decrease in the amplitude of the auditory brainstem response (ABR) (auditory hair cells; 10 mg/kg ip, analyzed six days later, compared with same-animal measurements before treatment) | inner hair cells lost after drug treatment (auditory hair cells; 10 mg/kg ip, six days later) | ISO-DP (threshold required to obtain a given level of response) (auditory hair cells; [7]) | distortion product otoacoustic emissions (DPOAE) (auditory hair cells; [7]) | changes in the spiral ganglion (auditory hair cells; [8]) | inner hair cells lost, as judged by Pv3 staining (auditory hair cells; [8]) | outer hair cells lost, as judged by Pv3 staining (auditory hair cells; [8]) | recombination of the transgene (PCR product on gel) [6]
1 | CC[C@H](C(=O)N1CCCC[C@H]1C(=O)O[C@H](CCc1ccc(OC)c(OC)c1)c1cccc(OCC(=O)NCC(CNC(=O)COc2cccc([C@@H](CCc3ccc(OC)c(OC)c3)OC(=O)[C@@H]3CCCCN3C(=O)[C@@H](CC)c3cc(OC)c(OC)c(OC)c3)c2)CN(C)C)c1)c1cc(OC)c(OC)c(OC)c1 [AP20187] | almost same | significantly reduced | bind with high affinity | do not bind | 38.8% | 32.4% | significant increased | partial loss of glucose control | 60% | 37.8% | significantly increased | significantly decreased | No remarkable changes | 35˜40% | ~15% | –
2 | CC/C(=C(\c1ccccc1)c1ccc(OCCN(C)C)cc1)c1ccccc1 [tamoxifen] | – | – | – | – | – | – | – | – | – | – | – | – | – | – | – | recombined product at 200 bp is present
